Results from patent publication US12156918B2, “Neuroendocrine cancer targeted therapy” (THE UAB RESEARCH FOUNDATION, priority 2018, dated 2024).
Where a SMILES comes first, the peptide text is derived from it. [ ]: non-standard residue; d: D form. The star is where a group is joined. Dolaproine = CO[C@@H]([C@@H]1CCCN1)[C@@H](C)C(=O)O; Dil = CC[C@H](C)[C@H](NC)[C@@H](CC(=O)O)OC; X1 = C[C@@H](N*)[C@@H](O)c1ccccc1; NMeV = CN[C@H](C(=O)O)C(C)C

Tests used:
BON-1 cells = test: In vitro anti-cancer toxicity (IC50), Luminescent Cell Viability Assay; type: cell-based, human; settings: 3-day incubation
Procedure: In vitro anti-cancer toxicity (IC50). BON cell line was utilized to compare the toxicity of ADC. 75 uL of culture media containing cells (viability >95%) with a density of 5×10^4 cells/mL was added in each well of 96-well plate. ADC or MMAE solution was sterilized by 0.2 μm filter and diluted to different concentrations with complete medium. After 4-hr incubation in regular cell culture incubator, 75 μL of ADC or MMAE with gradient concentrations were mixed with cells in the 96-well plate. The well plate was covered by another 96-well plate filled with PBS to prevent medium evaporation during treatment period. After 3-day incubation, the toxicity result was generated through Luminescent Cell Viability Assay (Promega, Madison, […]).

microtubule = test: Microtubule de-polymerization imaging; type: cell-based, human; settings: BON cell line
human CD8+ T cells = test: Flow cytometry of cytokine expression in CD3/CD28 stimulated T cells; type: cell-based; settings: 2 days incubation (100 nM elsewhere in the source)
Procedure: Therefore, our novel anti-SSTR2 mAb has great potential as a drug delivery vehicle in the form of ADC. […] Using flow cytometry, we analyze the effect of our SSTR2 mAb on the expression of cytokines in the CD3/CD28 stimulated human CD8+ T cells after incubating with mAb for 2 days.
Moreover, the possible effect of the disclosed anti-SSTR2 mAb on cytokine production in CD8^+ T cells was also tested. Post CD3/CD28 stimulation, human CD8^+ T cells were incubated with either 100 nM of SST analog (Octreotide) or 100 nM of the anti-SSTR2 mAb for 2 days. After incubation, flow cytometry was performed to analyze the expression of IL-2 and IFN-γ.

SMILES: CC[C@H](C)[C@@H]([C@@H](CC(=O)N1CCC[C@H]1[C@H](OC)[C@@H](C)C(=O)N[C@H](C)[C@@H](O)c1ccccc1)OC)N(C)C(=O)[C@@H](NC(=O)[C@@H](NC)C(C)C)C(C)C [MMAE, monomethyl auristatin E] (H-[NMeV]V[Dil][Dolaproine]-X1)
- IC50 (BON-1 cells): 2 nM
- mechanism of NET cell proliferation inhibition (microtubule): microtubule de-polymerization

SMILES: C[C@@H](O)[C@@H]1NC(=O)[C@H](CCCCN)NC(=O)[C@@H](Cc2c[nH]c3ccccc23)NC(=O)[C@H](Cc2ccccc2)NC(=O)[C@@H](NC(=O)[C@H](N)Cc2ccccc2)CSSC[C@@H](C(=O)N[C@H](CO)[C@@H](C)O)NC1=O [Octreotide]
- increase of IFN-γ expression (human CD8+ T cells): 2.2 folds
- increase of IL-2 expression (human CD8+ T cells): 1.6 folds
